Reference: article PMC11266932, “Enhanced absorption of prenylated cinnamic acid derivatives from Brazilian green propolis by turmeric in humans and rats” (Food Science & Nutrition, 2024)

Molecular target: T1, breast cancer resistance protein (BCRP) (Homo sapiens, UniProt Q9UNQ0)
T1 construct: host or cells: MDCK II (Madin-Darby canine kidney) cells overexpressing BCRP
T1 sequence (Q9UNQ0 1-655): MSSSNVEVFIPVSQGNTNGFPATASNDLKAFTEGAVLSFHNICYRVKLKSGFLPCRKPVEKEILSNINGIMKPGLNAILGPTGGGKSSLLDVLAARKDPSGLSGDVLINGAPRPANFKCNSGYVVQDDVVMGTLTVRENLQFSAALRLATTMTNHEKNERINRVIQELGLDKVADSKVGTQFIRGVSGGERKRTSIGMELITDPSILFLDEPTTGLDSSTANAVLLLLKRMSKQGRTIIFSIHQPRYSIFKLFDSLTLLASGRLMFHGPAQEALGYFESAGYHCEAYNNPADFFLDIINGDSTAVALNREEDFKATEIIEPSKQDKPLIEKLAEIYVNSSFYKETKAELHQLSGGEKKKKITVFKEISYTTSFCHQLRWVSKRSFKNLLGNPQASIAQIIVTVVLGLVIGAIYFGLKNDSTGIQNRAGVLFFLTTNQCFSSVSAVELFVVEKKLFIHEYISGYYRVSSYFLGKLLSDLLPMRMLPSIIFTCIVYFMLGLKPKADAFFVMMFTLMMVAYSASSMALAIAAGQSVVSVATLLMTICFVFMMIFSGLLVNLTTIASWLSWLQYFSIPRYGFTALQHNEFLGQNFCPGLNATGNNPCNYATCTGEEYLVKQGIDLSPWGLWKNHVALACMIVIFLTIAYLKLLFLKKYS
Assay: Bidirectional transport assay across MDCK II-BCRP cell monolayer
Assay type: in vitro ADME
Details: for Net flux ratio: ER of MDCK II‐BCRP divided by ER of parent MDCK II, >2 = transporter-mediated efflux; for substrate of BCRP (in words): bidirectional transport assay, net flux ratio criterion
Protocol: The Madin‐Darby canine kidney (MDCK II) cell line and MDCK II cells overexpressing multidrug resistance 1 (MDR1) or breast cancer resistance protein (BCRP) were purchased from the Netherlands Cancer Institute (Amsterdam, Netherlands) and SOLVO Biotechnology (Szeged, Hungary), respectively. The cell lines were routinely cultured in Dulbecco's modified Eagle's medium (DMEM) containing 10% fetal bovine serum and 1% penicillin/streptomycin at 37°C in 5% CO2. All cells were seeded in a feeder tray at a density of 3–6 × 10^4 cells/well and grown for 3–4 days. On the day of the transport study, cell monolayers were washed with Hanks' balanced salt solution (HBSS) buffer containing 0.1% BSA (pH 7.4) and incubated at 37°C for 20 min. Artepillin C and drupanin dissolved in DMSO (10 mM) were added to the transport buffer (HBSS containing 10 mM HEPES, 0.2% glucose, 0.1% BSA, pH 7.4) to a final concentration of 10 μM and then loaded into the apical or basolateral chamber. After 120 min of incubation, 150 μL of the aliquots were collected from the donor and receiver chambers and mixed with an equal volume of 50% methanol. After centrifugation at 3000 rpm for 10 min at 4°C, the supernatants were filtered and subjected to LC–MS/MS analysis.
The in vitro samples were analyzed using HPLC (LC‐20A, Shimadzu, Kyoto, Japan) with a reversed‐phase column (Inertsil ODS‐3, 2.1 × 33 mm, ID. 3 μm, GL Sciences, Tokyo, Japan) held at 40°C. The mobile solvents used were water with 10 mM ammonium acetate (pH 4.0, A) and methanol (B) pumped at a flow rate of 0.4 mL/min. The following gradient was employed: 10%–90% B (0–0.5 min), 90% B (0.5–2.5 min), and 10% B (2.5–4 min). The eluent was monitored using a triple quadrupole mass spectrometer (API 4000, AB Sciex, Framingham, MA, USA) incorporating an electrospray ion source (ESI) operating in the multiple reaction monitoring mode. The ESI source was operated in negative ionization mode at 600°C with a spray voltage of −4.5 kV. The curtain gas (nitrogen), collision gas (nitrogen), nebulizer gas (whole air), and drying gas (whole air) were set at 40, 5, 50, and 70 psi, respectively. […] Artepillin C and drupanin were diluted in 50% methanol to concentrations of 1.6, 3.2, 8, 40, 200, 1000, and 2000 nM and were used as external standards. Sulfaphenazole (0.2 μM) was used as an internal standard.
The apparent permeability coefficients (Papp) for both directions, from the apical side to the basolateral side (A to B) and from the basolateral side to the apical side (B to A) in the cell monolayer, were calculated using the following equation: (1) Papp=dQ/dt/A×C0 where dQ/dt is the permeation rate (nmol/s), A is the membrane area (cm^2), and C0 is the initial concentration of the compound in the donor compartment (nM). The efflux ratios (ER) in the B‐to‐A and A‐to‐B directions were determined using the following equation: (2) ER=PappBtoA/PappAtoB
Net flux ratios were calculated by dividing the ER obtained from MDCK II‐MDR1 (or BCRP) cells by that obtained from the parent MDCK II cells.

[1] = 10 μM, 120 min, mean ± SE, n = 2

Row | Structure (SMILES) | Papp MDCK II‐BCRP A to B [1] | Papp MDCK II‐BCRP B to A [1] | Flux ratio (MDCK II‐BCRP) (efflux ratio, ER) (10 μM, Papp B to A / Papp A to B) | Net flux ratio | substrate of BCRP (in words)
1 | CC(C)=CCc1cc(/C=C/C(=O)O)cc(CC=C(C)C)c1O [artepillin C] | 9.7 ± 0.2 10^−6 cm/s | 16.0 ± 0.01 10^−6 cm/s | 1.6 | 2.0 | substrates
2 | CC(C)=CCc1cc(/C=C/C(=O)O)ccc1O [drupanin] |  |  |  | 20.4 | substrates
